Measurements published in article PMC12586182 (Frontiers in Oncology, 2025).

How the values were obtained:
Experiment in all cases: Cell viability assay (ATPlite)
Format in all cases: cell-based
SW837 = settings: Homo sapiens; SW837 cell line, 72 hours incubation
Procedure, shortened: (§1)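 Cells grew 24 h, then received 9-point √10-fold compound series in duplicate (0.4% DMSO final) for 72 h. ATP content was read by ATPlite luminescence and normalized to vehicle controls as % viability. IC50 came from a four-parameter logistic fit; curves with F-value above 1.5 were invalidated, with IC50 then set at the top concentration.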

T24 = settings: Homo sapiens, T-24; T24 cell line, 72 hours incubation
Procedure, shortened: as §1

PA-1 = settings: Homo sapiens; PA-1 cell line, 72 hours incubation
Procedure, shortened: as §1

MOLT-4 = settings: Homo sapiens; MOLT-4 cell line, 72 hours incubation
Procedure, shortened: as §1

SNU-C2B = settings: Homo sapiens; SNU-C2B cell line, 72 hours incubation
Procedure, shortened: as §1

SK-OV-3 = settings: Homo sapiens; SK-OV-3 cell line, 72 hours incubation
Procedure, shortened: as §1

HT-29 = settings: Homo sapiens; HT-29 cell line, 72 hours incubation
Procedure, shortened: as §1

MDA-MB-231 = settings: Homo sapiens; MDA-MB-231 cell line, 72 hours incubation
Procedure, shortened: as §1

C-33 A = settings: Homo sapiens; C-33 A cell line, 72 hours incubation
Procedure, shortened: as §1

A-388 = settings: Homo sapiens; A-388 cell line, 72 hours incubation
Procedure, shortened: as §1

MM1.R = settings: Homo sapiens, MM.1R; MM1.R cell line, 72 hours incubation
Procedure, shortened: as §1

BT-20 = settings: Homo sapiens; BT-20 cell line, 72 hours incubation
Procedure, shortened: as §1

SW480 = settings: Homo sapiens; SW480 cell line, 72 hours incubation
Procedure, shortened: as §1

SNU-16 = settings: Homo sapiens; SNU-16 cell line, 72 hours incubation
Procedure, shortened: as §1

UM-UC-3 = settings: Homo sapiens, UMUC3; UM-UC-3 cell line, 72 hours incubation
Procedure, shortened: as §1

ACHN = settings: Homo sapiens; ACHN cell line, 72 hours incubation
Procedure, shortened: as §1

BT-474 = settings: Homo sapiens; BT-474 cell line, 72 hours incubation
Procedure, shortened: as §1

SUP-T1 = settings: Homo sapiens; SUP-T1 cell line, 72 hours incubation
Procedure, shortened: as §1

786-O = settings: Homo sapiens, 786-0; 786-O cell line, 72 hours incubation
Procedure, shortened: as §1

AP-1060 = settings: Homo sapiens; AP-1060 cell line, 72 hours incubation
Procedure, shortened: as §1

UWB1.289 = settings: Homo sapiens, UWB1289; UWB1.289 cell line, 72 hours incubation
Procedure, shortened: as §1

LoVo = settings: Homo sapiens; LoVo cell line, 72 hours incubation
Procedure, shortened: as §1

NOMO-1 = settings: Homo sapiens; NOMO-1 cell line, 72 hours incubation
Procedure, shortened: as §1

NCI-H2228 = settings: Homo sapiens; NCI-H2228 cell line, 72 hours incubation
Procedure, shortened: as §1

HEC-251 = settings: Homo sapiens; HEC-251 cell line, 72 hours incubation
Procedure, shortened: as §1

CCRF-HSB-2 = settings: Homo sapiens; CCRF-HSB-2 cell line, 72 hours incubation
Procedure, shortened: as §1

KLE = settings: Homo sapiens; KLE cell line, 72 hours incubation
Procedure, shortened: as §1

THP-1 = settings: Homo sapiens; THP-1 cell line, 72 hours incubation
Procedure, shortened: as §1

LS411N = settings: Homo sapiens, LS-411N; LS411N cell line, 72 hours incubation
Procedure, shortened: as §1

BxPC-3 = settings: Homo sapiens; BxPC-3 cell line, 72 hours incubation
Procedure, shortened: as §1

SNU-5 = settings: Homo sapiens; SNU-5 cell line, 72 hours incubation
Procedure, shortened: as §1

For `O=C(c1ccc(Oc2ccccc2)cc1Cl)c1c[nH]c2ncnc(N[C@@H]3CC[C@@H](CO)OC3)c12` [nemtabrutinib], the IC50 (SW837) was 3.81 µM, the IC50 (T24) was 2.79 µM and the IC50 (PA-1) was 3.03 µM. For the same compound, the IC50 (MOLT-4) was 6.87 µM, the IC50 (SNU-C2B) was 2.92 µM and the IC50 (SK-OV-3) was 4.95 µM. The IC50 (HT-29) was 0.369 µM, the IC50 (MDA-MB-231) was 2.59 µM and the IC50 (C-33 A) was 1.32 µM. It also gave an IC50 (A-388) of 5.33 µM, an IC50 (MM1.R) of 8.23 µM and an IC50 (BT-20) of 14.5 µM. For the same compound, the IC50 (SW480) was 3.34 µM, the IC50 (SNU-16) was 1.81 µM and the IC50 (UM-UC-3) was 5.35 µM. The IC50 (ACHN) was 2.29 µM, the IC50 (BT-474) was 3.11 µM and the IC50 (SUP-T1) was 12.1 µM. For the same compound, the IC50 (786-O) was 6.71 µM, the IC50 (AP-1060) was 0.736 µM and the IC50 (UWB1.289) was 2.49 µM. For the same compound, the IC50 (LoVo) was 2.36 µM, the IC50 (NOMO-1) was 4.78 µM and the IC50 (NCI-H2228) was 7.5 µM. It also gave an IC50 (HEC-251) of 0.178 µM, an IC50 (CCRF-HSB-2) of 0.37 µM and an IC50 (KLE) of 2.11 µM. The IC50 (THP-1) was 1.55 µM, the IC50 (LS411N) was 0.767 µM and the IC50 (BxPC-3) was 2.61 µM. For the same compound, the IC50 (SNU-5) was 8.05 µM.
